Data set [1] relates to Hepcidin expression. In words: In vitro model of Hepcidin expression (HAMP/HPRT1, alone and with BMP-6). Format: cell-based. The conditions noted are these: as compared to control (FIGS. 6-9).
The subject of data set [2] is BMP4. In words: BMP4 biological assay (Table 3). In kind it is cell-based.
Data set [3] addresses T1, ALK4 (Homo sapiens, UniProt P36896).
T1 sequence (P36896 24-505): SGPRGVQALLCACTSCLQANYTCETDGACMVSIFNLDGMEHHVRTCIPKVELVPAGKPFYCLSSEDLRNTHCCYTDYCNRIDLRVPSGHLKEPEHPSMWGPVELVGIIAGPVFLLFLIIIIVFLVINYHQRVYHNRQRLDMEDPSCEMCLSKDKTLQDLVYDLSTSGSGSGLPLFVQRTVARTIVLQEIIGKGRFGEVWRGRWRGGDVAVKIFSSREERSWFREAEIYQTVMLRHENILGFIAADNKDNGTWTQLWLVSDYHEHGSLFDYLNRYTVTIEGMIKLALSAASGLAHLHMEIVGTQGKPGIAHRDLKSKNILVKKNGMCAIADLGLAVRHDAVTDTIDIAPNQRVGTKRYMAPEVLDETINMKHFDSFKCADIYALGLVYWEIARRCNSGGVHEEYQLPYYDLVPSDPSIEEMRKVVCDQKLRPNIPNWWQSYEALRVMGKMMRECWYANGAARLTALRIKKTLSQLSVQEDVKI
As to the kind of experiment: Selectivity Ki, ALK4. Format: biochemical.

The target in data set [4] is T2, ALK2 (Homo sapiens, UniProt Q04771).
T2 sequence (Q04771 21-509): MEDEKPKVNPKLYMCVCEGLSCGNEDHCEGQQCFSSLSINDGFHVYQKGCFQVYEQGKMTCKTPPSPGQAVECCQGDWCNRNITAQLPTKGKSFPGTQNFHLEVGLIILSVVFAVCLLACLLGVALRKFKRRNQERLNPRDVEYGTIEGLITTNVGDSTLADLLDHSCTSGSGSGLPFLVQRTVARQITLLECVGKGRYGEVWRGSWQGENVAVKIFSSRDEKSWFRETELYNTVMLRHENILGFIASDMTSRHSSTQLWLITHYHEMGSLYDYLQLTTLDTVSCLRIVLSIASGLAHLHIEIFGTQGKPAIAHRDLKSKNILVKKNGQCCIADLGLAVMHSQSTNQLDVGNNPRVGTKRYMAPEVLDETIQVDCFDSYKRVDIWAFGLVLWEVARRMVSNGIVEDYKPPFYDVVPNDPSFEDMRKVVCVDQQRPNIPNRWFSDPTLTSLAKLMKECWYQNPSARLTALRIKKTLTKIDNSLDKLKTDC
As to the kind of experiment: Selectivity Ki, ALK2. Format: biochemical.

The target of data set [5] is ALK6 (Homo sapiens, UniProt O00238). As to the kind of experiment: Selectivity Ki, ALK6. In kind it is biochemical.
ALK6, sequence (O00238 14-502): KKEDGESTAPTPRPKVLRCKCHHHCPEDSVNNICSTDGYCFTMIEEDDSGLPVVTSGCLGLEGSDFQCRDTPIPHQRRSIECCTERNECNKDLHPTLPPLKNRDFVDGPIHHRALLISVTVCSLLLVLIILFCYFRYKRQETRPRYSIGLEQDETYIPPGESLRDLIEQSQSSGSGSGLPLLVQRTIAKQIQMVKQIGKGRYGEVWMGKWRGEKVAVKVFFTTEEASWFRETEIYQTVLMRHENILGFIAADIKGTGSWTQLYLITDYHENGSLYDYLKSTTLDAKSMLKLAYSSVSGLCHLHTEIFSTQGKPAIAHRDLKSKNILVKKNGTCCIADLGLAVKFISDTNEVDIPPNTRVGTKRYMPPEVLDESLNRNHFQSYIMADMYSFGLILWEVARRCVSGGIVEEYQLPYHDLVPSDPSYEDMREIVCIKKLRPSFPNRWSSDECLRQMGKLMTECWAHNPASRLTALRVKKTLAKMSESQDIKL
The target of data set [6] is ALK3 (Homo sapiens, UniProt P36894). In words: Selectivity Ki, ALK3. In kind it is biochemical.
ALK3, sequence (P36894 24-532, species assumed): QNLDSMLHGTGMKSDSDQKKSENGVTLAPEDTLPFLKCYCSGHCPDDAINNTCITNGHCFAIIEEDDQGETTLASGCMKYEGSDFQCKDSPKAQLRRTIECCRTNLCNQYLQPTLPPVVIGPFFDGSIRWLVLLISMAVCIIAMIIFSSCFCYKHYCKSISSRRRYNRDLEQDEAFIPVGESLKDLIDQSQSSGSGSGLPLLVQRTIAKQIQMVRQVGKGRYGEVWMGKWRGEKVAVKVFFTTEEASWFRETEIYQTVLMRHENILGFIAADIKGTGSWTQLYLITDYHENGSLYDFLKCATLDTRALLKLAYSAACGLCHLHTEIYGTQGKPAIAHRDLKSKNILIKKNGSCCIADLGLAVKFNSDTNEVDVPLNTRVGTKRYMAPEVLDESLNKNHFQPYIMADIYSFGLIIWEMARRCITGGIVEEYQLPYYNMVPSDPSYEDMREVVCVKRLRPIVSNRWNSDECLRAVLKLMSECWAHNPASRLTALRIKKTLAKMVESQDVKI
The nature of data set [7]: In vitro DMPK intrinsic clearance, human. Format: in vitro ADME.
In data set [8] the test system is hepcidin expression. As to the kind of experiment: IRIDA animal model, liver hepcidin mRNA 2 hours after injection. The settings on record: Tmprss6−/− mice, 2 hours after injecting (FIG. 13). Format: in vivo. How it is done:
The efficacy of compounds was shown in an IRIDA animal model. Initially, an exemplary dose and time point was determined in wild type mice. Briefly, liver mRNA and proteins were extracted. Hepcidin and Id1 mRNA expression was measured by real-time PCR and Smad 1-5-8 phosphorylation was assayed by Western blot analysis. FIGS. 10A-10D depict the RT-PCR data for various inflammatory markers in the liver. FIGS. 11A and 11B depict the RT-PCR data for Hamp mRNA and Id1 mRNA expression. FIG. 12A-12C depict the results of the Western blot analysis.

Data set [9] is described as follows: Plasma protein binding, human. Format: in vitro ADME. The conditions noted are these: read-out: Plasma protein binding (% Fu) Human.
In data set [10] the target is TGFβR2 (Homo sapiens, UniProt P37173). In words: Selectivity Ki, TGFβR2. Format: biochemical.
TGFβR2, sequence (P37173 23-567): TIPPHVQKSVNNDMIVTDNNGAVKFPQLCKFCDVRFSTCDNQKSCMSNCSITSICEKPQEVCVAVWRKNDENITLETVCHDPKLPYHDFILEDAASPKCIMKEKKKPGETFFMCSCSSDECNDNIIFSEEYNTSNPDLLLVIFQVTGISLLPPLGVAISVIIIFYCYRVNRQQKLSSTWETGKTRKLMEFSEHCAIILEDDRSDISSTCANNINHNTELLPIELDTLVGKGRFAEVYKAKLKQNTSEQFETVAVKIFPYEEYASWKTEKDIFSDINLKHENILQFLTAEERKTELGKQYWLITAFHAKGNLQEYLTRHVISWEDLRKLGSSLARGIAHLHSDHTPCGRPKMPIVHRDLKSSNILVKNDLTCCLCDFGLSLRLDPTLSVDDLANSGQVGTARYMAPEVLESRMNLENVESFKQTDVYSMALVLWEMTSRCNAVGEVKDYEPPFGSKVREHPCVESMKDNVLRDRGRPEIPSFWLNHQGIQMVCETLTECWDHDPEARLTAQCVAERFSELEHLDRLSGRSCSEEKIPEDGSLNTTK
Data set [11] concerns the target T3, ALK5 (Homo sapiens, UniProt P36897).
T3 sequence (P36897 34-503): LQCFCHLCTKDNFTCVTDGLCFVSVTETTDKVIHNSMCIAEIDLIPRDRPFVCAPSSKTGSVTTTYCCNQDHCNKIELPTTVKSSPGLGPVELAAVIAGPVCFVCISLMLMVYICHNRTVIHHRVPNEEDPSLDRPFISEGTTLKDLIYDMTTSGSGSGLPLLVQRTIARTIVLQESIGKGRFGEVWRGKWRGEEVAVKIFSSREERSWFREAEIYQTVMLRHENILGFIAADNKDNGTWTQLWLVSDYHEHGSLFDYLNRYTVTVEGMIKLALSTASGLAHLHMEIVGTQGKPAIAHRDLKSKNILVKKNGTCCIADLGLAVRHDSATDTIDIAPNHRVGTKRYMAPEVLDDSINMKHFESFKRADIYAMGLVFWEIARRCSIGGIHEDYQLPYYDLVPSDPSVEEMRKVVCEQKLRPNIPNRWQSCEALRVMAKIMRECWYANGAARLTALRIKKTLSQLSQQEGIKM
As to the kind of experiment: Selectivity Ki, ALK5. Format: biochemical.

In data set [12] the target is KDR (Homo sapiens, UniProt P35968). As to the kind of experiment: Selectivity Ki, KDR. In kind it is biochemical.
KDR, sequence (P35968 20-1356, species assumed): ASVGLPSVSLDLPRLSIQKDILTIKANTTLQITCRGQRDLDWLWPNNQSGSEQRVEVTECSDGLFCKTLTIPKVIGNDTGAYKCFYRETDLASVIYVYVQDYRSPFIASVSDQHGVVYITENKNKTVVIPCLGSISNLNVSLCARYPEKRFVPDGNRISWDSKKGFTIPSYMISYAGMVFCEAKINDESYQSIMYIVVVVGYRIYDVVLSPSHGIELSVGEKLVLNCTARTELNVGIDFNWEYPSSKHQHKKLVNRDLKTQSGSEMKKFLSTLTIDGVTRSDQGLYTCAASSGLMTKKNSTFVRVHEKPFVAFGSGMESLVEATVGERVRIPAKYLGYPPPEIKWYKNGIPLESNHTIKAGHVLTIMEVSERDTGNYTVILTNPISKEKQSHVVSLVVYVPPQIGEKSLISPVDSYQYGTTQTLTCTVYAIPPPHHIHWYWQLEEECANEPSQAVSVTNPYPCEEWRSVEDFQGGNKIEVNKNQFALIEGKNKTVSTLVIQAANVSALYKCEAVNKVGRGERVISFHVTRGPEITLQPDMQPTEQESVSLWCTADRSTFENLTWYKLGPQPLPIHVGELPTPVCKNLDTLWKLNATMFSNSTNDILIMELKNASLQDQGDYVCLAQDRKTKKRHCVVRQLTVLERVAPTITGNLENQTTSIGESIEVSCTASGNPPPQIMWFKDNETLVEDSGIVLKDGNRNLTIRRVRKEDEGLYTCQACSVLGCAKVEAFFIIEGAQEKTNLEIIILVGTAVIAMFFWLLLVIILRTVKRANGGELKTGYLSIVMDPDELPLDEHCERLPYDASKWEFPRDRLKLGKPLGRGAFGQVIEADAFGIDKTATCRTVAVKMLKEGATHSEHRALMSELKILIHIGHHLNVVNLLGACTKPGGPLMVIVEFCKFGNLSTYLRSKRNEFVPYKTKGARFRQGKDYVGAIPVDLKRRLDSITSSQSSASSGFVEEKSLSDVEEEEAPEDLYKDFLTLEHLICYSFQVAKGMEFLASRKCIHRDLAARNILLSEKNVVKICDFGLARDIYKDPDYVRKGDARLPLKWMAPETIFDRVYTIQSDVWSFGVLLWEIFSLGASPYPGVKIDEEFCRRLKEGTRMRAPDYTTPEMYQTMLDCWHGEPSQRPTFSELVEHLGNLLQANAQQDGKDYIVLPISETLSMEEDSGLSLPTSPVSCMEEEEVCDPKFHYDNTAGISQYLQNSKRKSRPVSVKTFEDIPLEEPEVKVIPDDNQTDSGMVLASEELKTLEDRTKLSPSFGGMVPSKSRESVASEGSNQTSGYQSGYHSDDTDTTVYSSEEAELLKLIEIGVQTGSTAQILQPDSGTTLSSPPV
Data set [13] is described as follows: In vitro DMPK intrinsic clearance, mouse. In kind it is in vitro ADME.
The target of data set [14] is ALK1 (Homo sapiens, UniProt P37023). In words: Selectivity Ki, ALK1. Format: biochemical.
ALK1, sequence (P37023 22-503, species assumed): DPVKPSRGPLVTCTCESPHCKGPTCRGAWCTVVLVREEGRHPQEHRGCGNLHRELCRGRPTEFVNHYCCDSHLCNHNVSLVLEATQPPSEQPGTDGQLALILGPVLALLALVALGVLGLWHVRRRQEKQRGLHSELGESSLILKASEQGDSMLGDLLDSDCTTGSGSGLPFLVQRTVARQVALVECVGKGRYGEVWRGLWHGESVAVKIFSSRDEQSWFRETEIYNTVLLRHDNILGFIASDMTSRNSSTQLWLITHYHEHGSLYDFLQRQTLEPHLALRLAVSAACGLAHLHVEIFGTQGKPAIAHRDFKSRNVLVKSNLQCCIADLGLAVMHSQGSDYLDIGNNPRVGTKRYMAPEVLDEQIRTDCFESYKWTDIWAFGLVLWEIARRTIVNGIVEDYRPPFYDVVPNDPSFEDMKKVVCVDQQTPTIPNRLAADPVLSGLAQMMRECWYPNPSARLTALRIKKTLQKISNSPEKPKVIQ
Data set [15] has as its target AMPK. As to the kind of experiment: Selectivity Ki, AMPK. Format: biochemical.
The target in data set [16] is T4, BMPR2 (Homo sapiens, UniProt Q13873).
T4 sequence (Q13873 27-1038): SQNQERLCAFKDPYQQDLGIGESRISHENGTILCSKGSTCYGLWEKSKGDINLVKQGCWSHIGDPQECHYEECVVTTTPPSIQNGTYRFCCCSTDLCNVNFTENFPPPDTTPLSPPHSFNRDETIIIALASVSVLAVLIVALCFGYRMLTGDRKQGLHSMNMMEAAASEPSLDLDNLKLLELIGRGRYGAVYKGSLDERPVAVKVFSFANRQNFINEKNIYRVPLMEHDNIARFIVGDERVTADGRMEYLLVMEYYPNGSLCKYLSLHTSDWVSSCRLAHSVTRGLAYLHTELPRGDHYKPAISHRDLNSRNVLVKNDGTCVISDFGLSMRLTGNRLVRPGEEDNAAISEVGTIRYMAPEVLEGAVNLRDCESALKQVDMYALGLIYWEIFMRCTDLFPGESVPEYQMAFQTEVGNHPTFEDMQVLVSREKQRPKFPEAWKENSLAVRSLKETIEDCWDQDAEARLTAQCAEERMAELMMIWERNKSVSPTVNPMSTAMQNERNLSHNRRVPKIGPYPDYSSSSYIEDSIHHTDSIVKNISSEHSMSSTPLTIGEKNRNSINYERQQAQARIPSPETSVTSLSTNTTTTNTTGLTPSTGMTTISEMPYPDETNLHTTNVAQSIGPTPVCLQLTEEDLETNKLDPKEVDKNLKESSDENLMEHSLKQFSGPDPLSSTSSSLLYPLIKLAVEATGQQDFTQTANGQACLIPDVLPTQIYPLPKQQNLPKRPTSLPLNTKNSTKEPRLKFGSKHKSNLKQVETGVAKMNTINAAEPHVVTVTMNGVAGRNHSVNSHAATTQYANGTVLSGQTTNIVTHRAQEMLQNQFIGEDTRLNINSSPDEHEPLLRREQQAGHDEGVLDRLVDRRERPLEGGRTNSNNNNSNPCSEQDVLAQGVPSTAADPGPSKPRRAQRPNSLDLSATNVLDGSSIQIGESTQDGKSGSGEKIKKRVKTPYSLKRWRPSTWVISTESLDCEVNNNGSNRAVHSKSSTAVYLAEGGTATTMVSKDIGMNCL
In words: Selectivity Ki, BMPR2. Format: biochemical.

Data set [17] is described as follows: Plasma protein binding, mouse. In kind it is in vitro ADME. The conditions noted are these: read-out: Plasma protein binding (% Fu) Mouse.
The nature of data set [18]: Plasma protein binding, rat. Format: in vitro ADME. The conditions noted are these: read-out: Plasma protein binding (% Fu) Rat.
Data set [19] can be described thus: In vitro DMPK intrinsic clearance, rat. In kind it is in vitro ADME.
The mark [20] stands for this setting: read-out: Intrinsic clearance hCLHEP.
[21] abbreviates: read-out: Intrinsic clearance hCLINT.

In general, IC50 refers to the concentration needed to halve the response being measured. A low value points to greater potency. In general, Ki refers to a measure of affinity in units of concentration, obtained from inhibition or displacement. High values mean weaker binding, low ones tighter binding.

In the case of `COc1ccc2nc(C)cc(-c3cnc4cc(-c5ccc(N6CCN(C(C)=O)CC6)cc5)ccn34)c2c1` [Compound 48], the Hepcidin expression result in data set [1] is “reduced Hepcidin expression as compared to control”. This compound also came in with a half-maximal inhibitory concentration (IC50) in data set [2] of 185 nM. The Ki in data set [3] was 144 nM; in data set [4] it was 338 nM; in [5] it was 965 nM; in data set [6], less than 5.1 nM; in data set [10], 196 nM; in data set [11] it was 319 nM. The inhibition constant (Ki) in [12] is 8730 nM; in data set [14], 4280 nM; in data set [15], 8700 nM; in data set [16], more than 30000 nM. For the same compound, the CLint scaled in [7] (setting [20]) was 19.6 mL/min/kg; in [7] (setting [21]), 294 mL/min/kg; in data set [13] (read-out: Intrinsic clearance mCLHEP) it was 71.5 mL/min/kg; in [13] (read-out: Intrinsic clearance mCLINT), 349 mL/min/kg. Further, the “Liver hepcidin mRNA expression” value in data set [8] is “reduction of hepcidin expression”. In addition, the results for the fraction unbound in [9] and in data set [17] were 0.012 and 0.058, respectively.

Consider `Cc1cc(-c2cnc3cc(-c4ccc(C5CCN(C(C)C)CC5)cc4)ccn23)c2cc(F)ccc2n1` [Compound 168], for which, in data set [2], the IC50 worked out at 392 nM. Moreover, the inhibition constant (Ki) in data set [4] was determined as 7.2 nM; in data set [6], 34.6 nM; in [14], 179 nM. For the same compound, the CLint scaled was determined as 6.1 mL/min/kg in data set [7] (setting [20]), 8.6 mL/min/kg in [7] (setting [21]), 14.5 mL/min/kg in [19] (read-out: Intrinsic clearance rCLHEP) and 18.2 mL/min/kg in [19] (read-out: Intrinsic clearance rCLINT). Also, the fraction unbound is 0.021 in data set [9], 0.014 in data set [18] and 0.009 in data set [17].

(Values after patent US20190218214A1, “Inhibition of BMP Signaling Compounds, Compositions and Uses Thereof” (Vanderbilt University, priority 2016, published 2019).)
